Here are results for 31 compounds from PubChem BioAssay AID743436 (The Scripps Research Institute Molecular Screening Center, 2014).

Activity calls are given as the source filed them. How the calls were made is not given here.

Usually CC50 stands for the concentration at which the toxic effect on the cells reaches its halfway point.

For the assay, the system named is S1PR3 cell line viability, luminescence counterscreen. Description: cytotoxicity of test compounds, late-stage follow-up, cytotoxicity control for S1PR3 antagonist project, cell-based, luminescence (AID 743436).

Consider `O=C(NC(c1ccc(Cl)cc1)c1nc(-c2ccccc2)no1)c1cccc(Br)c1` (stereo unspecified), for which the CC50 was > 28.2 µM (inactive). For the compound `O=C(c1cccc(Cl)c1)N(CCO)C(c1ccc(Cl)c(Cl)c1)c1nc(-c2ccccc2)no1` (stereo unspecified), the CC50 is > 28.2 µM (inactive). For the compound `O=C(NC(Cc1ccccc1)c1nc(-c2ccccc2)no1)c1cccc(Cl)c1` (stereo unspecified), the CC50 was > 28.2 µM (inactive).

Consider `COc1ccc(C(=O)NC(c2ccccc2)c2nc(-c3ccccc3)no2)cc1` (stereo unspecified), for which the CC50 was > 28.2 µM (inactive). As for `Cc1ccc(C(NC(=O)c2cccc(Cl)c2)c2nc(-c3ccccc3)no2)cc1` (stereo unspecified), the CC50 was > 28.2 µM (inactive). In the case of `O=C(NC(c1ccc(Br)cc1)c1nc(-c2ccccc2)no1)c1ccc(Cl)c(Cl)c1` (stereo unspecified), the CC50 was > 28.2 µM (inactive). On to `O=C(NC(c1ccccc1)c1nc(-c2ccccc2)no1)c1ccc(Cl)cc1` (stereo unspecified), for which the CC50 was > 28.2 µM (inactive). Take `O=C(NC(c1ccc(Cl)c(Cl)c1)c1nc(-c2ccccc2)no1)c1ccc(Cl)c(Cl)c1` (stereo unspecified): the CC50 was > 28.2 µM (inactive). Then `O=C(NC(c1ccc(Cl)cc1)c1nc(-c2ccccc2)no1)c1ccc(Cl)c(Cl)c1` (stereo unspecified), with > 28.2 µM (inactive); and `O=C(NC(c1ccc(Cl)cc1)c1nc(-c2ccccc2)no1)c1cccc(Cl)c1` (stereo unspecified), with > 28.2 µM (inactive).

For the compound `O=C(NC(c1ccc(Cl)c(Cl)c1)c1nc(-c2ccccc2)no1)c1ccc(Cl)cc1` (stereo unspecified), the CC50 is > 28.2 µM (inactive). With `O=C(NC(c1ccccc1)c1nc(-c2ccccc2)no1)c1ccc(Cl)c(Cl)c1` (stereo unspecified), the CC50 is > 28.2 µM (inactive). Then `O=C(NC(c1ccccc1)c1nc(-c2ccccc2)no1)c1cccc(Cl)c1` (stereo unspecified), with > 28.2 µM (inactive); and `O=C(NC(c1ccc(Cl)c(Cl)c1)c1nc(-c2ccccc2)no1)c1cccc(Cl)c1` (stereo unspecified), with > 28.2 µM (inactive).

For the compound `O=C(NC(c1nc(-c2ccccc2)no1)C1CCCCC1)c1ccc(Cl)c(Cl)c1` (stereo unspecified), the CC50 was > 28.2 µM (inactive). The figure for `Clc1ccc(CNC(c2ccccc2)c2nc(-c3ccccc3)no2)cc1Cl` (stereo unspecified) is > 28.2 µM (inactive).

As for `O=C(NC(c1ccccc1)c1nc(-c2ccccc2)no1)c1cccc(Cl)n1` (stereo unspecified), the CC50 was > 28.2 µM (inactive). The figure for `O=C(NC(c1ccccc1)c1nc(-c2ccccc2)no1)c1cccc(Br)c1` (stereo unspecified) is > 28.2 µM (inactive); for `O=C(NC(c1ccc(Cl)c(Cl)c1)c1nc(-c2ccccc2)no1)c1ccccc1` (stereo unspecified) it is 24.7 µM (inactive); for `O=C(Cc1ccc(Cl)c(Cl)c1)NC(c1ccccc1)c1nc(-c2ccccc2)no1` (stereo unspecified) it is > 28.2 µM (inactive). `Cc1ccc(C(=O)NC(c2ccccc2)c2nc(-c3ccccc3)no2)cc1` (stereo unspecified): the CC50 is > 28.2 µM (inactive). On to `O=C(NC(c1ccc(Cl)cc1)c1nc(-c2ccccn2)no1)c1cccc(Cl)c1` (stereo unspecified), for which the CC50 is > 28.2 µM (inactive). For `N#Cc1ccc(C(=O)NC(c2ccc(Cl)c(Cl)c2)c2nc(-c3ccccc3)no2)cc1` (stereo unspecified), the CC50 was > 28.2 µM (inactive). Then `O=C(Nc1ccc(Cl)c(Cl)c1)NC(c1ccccc1)c1nc(-c2ccccc2)no1` (stereo unspecified), with 7.7 µM; and `O=C(NC(c1ccc(Cl)cc1)c1nc(-c2ccccc2)no1)c1ccc(Cl)c(Br)c1` (stereo unspecified), with > 28.2 µM (inactive). With `O=C(NC(c1cccc(Cl)c1)c1nc(-c2ccccc2)no1)c1cccc(Cl)c1` (stereo unspecified), the CC50 is > 28.2 µM (inactive). Then `O=C(NC(c1ccc(Cl)cc1)c1nc(-c2cccc(Cl)c2)no1)c1cccc(Cl)c1` (stereo unspecified), with > 28.2 µM (inactive). For `O=C(NC(c1cccc(Cl)c1)c1nc(-c2ccccc2)no1)c1ccc(Cl)c(Cl)c1` (stereo unspecified), the CC50 was > 28.2 µM (inactive). The figure for `O=C(NC(c1cccc(Cl)c1)c1nc(-c2ccccc2)no1)c1cc(Cl)cc(Cl)c1` (stereo unspecified) is > 28.2 µM (inactive); for `O=C(NC(c1nc(-c2ccccc2)no1)C1CCOCC1)c1ccc(Cl)c(Cl)c1` (stereo unspecified) it is > 28.2 µM (inactive). As to `CCc1ccc(C(NC(=O)c2cccc(Cl)c2)c2nc(-c3ccccc3)no2)cc1` (stereo unspecified), the CC50 is > 28.2 µM (inactive).
